Earlier results, collected in US20090214446A1, “CYCLODEXTRIN INCLUSION COMPLEXES AND METHODS OF PREPARING SAME” (CARGILL, INCORPORATED, priority 2005, published 2009).

Details: octanol/water

CC(=O)C(C)=O [diacetyl]
log P: −1.34

C=C(C)[C@H]1CC=C(C)CC1 [limonene]
log P: 4.83

CCc1occc(=O)c1O [ethyl maltol]
log P: 0.30
